Experimental data from patent US20250320205A1, “STAT6 DEGRADERS” (Gilead Sciences, Inc., priority 2024, published 2025).

Key:
STAT6 = biological target: T1, STAT6 (Homo sapiens, UniProt P42226); test: STAT6 Degrader Assay (HiBiT based, HeLa LgBiT clone 4.14 cells); type: cell-based; conditions: for DC50: geometric mean across assay runs and compound batches, DC50 provided for test compounds with >80% Emax, read-out: STAT6 degradation DC50
T1 construct: These cells express endogenous STAT6; host or cells: HeLa LgBiT clone 4.14 (CRISPR knock-in of HiBiT into the endogenous STAT6 gene)
T1 sequence (P42226 1-847): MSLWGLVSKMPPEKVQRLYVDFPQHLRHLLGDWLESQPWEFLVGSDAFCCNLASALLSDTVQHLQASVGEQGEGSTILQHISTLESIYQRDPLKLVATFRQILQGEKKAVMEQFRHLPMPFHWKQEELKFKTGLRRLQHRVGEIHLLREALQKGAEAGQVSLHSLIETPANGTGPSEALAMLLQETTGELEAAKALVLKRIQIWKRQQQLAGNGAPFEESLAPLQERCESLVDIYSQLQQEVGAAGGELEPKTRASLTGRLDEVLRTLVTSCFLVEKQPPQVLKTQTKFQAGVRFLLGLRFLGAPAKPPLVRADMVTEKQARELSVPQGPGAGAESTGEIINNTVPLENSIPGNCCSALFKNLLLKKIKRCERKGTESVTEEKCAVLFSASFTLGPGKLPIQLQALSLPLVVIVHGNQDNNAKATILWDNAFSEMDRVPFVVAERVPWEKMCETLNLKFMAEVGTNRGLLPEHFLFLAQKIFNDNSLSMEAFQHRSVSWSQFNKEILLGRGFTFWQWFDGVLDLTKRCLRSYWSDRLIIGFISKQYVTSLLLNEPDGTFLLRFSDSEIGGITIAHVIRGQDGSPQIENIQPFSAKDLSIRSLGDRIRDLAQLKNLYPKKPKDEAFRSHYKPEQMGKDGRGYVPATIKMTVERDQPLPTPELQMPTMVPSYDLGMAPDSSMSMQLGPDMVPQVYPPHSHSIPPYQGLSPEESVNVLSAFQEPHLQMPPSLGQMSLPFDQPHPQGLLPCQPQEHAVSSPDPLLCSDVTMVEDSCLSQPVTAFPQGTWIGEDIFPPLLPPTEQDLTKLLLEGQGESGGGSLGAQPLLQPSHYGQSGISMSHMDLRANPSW
Method in brief: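 DC50 (nM) comes from NanoBiT luminescence of HiBiT-knock-in STAT6 in HeLa LgBiT clone 4.14 cells, treated 4-24 h at 37° C. Luminescence reflects non-degraded STAT6, with 50 μM terfenadine wells taken as full degradation.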

[1] = test system: Eotaxin-3 (CCL26) release; test: Human Whole Blood Eotaxin-3 Assay (IL-4 stimulated); type: cell-based; conditions: Homo sapiens; geometric mean across assay runs and compound batches; EC50 provided for test compounds with >80% Emax
Method in brief: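 Lithium-heparin human whole blood preincubated 2 h at 37 °C with compounds (4-fold dilutions, triplicate, 0.5% DMSO final). Then stimulated with 400 pM final recombinant human IL-4 for 48 h. Eotaxin-3 in supernatant quantified by MSD immunoassay.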

SMILES	DC50 (STAT6)	EC50 [1]	Emax (STAT6; HeLa, maximal STAT6 degradation)
C[C@@H](c1cc2c(-n3ccc4c(c3=O)CCN4)ccnc2n1C)N1CCC(c2ccc(C(=O)N3CCC(CN4CCN(c5ccc(N[C@@H]6CCC(=O)NC6=O)cc5F)CC4)CC3)cc2)CC1 (single isomer, unassigned) [Example 2c35]	7.5 nM	18.7 nM	
CNc1cc(=O)n(-c2ccnc3c2cc([C@H](C)N2CC=C(c4c(C)cc(C(=O)N5CCn6nc(CN7CCC(c8ccc(N[C@H]9CCC(=O)NC9=O)c(OC)c8)CC7)cc6C5)cc4F)CC2)n3C)cc1F (single isomer, unassigned) [Example 2g11]	1 nM	1.7 nM	
CNc1cc(=O)n(-c2ccnc3c2cc(CN2CCC(c4c(F)cc(C(=O)N5CCC(CN6CCN(c7ccc(NC8CCC(=O)NC8=O)cc7F)CC6)CC5)cc4F)CC2)n3C)cc1F (stereo not shown) [Example 2g32, 3-((4-(4-((1-(3,5-difluoro-4-(1-((4-(5-fluoro-4-(methyl-amino)-2-oxopyridin-1(2H)-yl)-1-methyl-1H-pyrrolo[2,3-b]pyridin-2-yl)methyl)piperi-din-4-yl)benzoyl)piperidin-4-yl)methyl)piperazin-1-yl)-3-fluorophenyl)amino)piperi-dine-2,6-dione]	10.6 nM	56.9 nM	
CNc1ccn(-c2ccnc3c2cc(CN2CCC(c4c(F)cc(C(=O)N5CCC(CN6CCN(c7ccc(N[C@@H]8CCC(=O)NC8=O)cc7F)CC6)CC5)cc4F)CC2)n3C)c(=O)c1 (single isomer, unassigned) [Example 2g57]	9.3 nM	50.3 nM	
CNc1cc(=O)n(-c2ccnc3c2cc([C@H](C)N2CC=C(c4c(C)cc(C(=O)N5CCn6nc(CN7CCC(c8ccc(N[C@H]9CCC(=O)NC9=O)cc8F)CC7)cc6C5)cc4F)CC2)n3C)cc1F (single isomer, unassigned) [Example 2g6]	0.3 nM	1.5 nM	
CNc1ccn(-c2ccnc3c2cc([C@H](C)N2CC=C(c4c(C)cc(C(=O)N5CCC(CN6CCN(c7ncc(N[C@H]8CCC(=O)NC8=O)cc7F)C[C@H]6C)CC5)cc4F)CC2)n3C)c(=O)c1 (single isomer, unassigned) [Example 2g114]	5.8 nM	6.5 nM	
CNc1ccn(-c2ccnc3c2cc(CN2CCC(c4c(F)cc(C(=O)N5CCC(CN6CCN(c7ccc(NC8CCC(=O)NC8=O)cc7F)CC6)CC5)cc4F)CC2)n3C)c(=O)c1 (stereo not shown) [Example 2g107, 3-((4-(4-((1-(3,5-difluoro-4-(1-((1-methyl-4-(4-(methyl-amino)-2-oxopyridin-1(2H)-yl)-1H-pyrrolo[2,3-b]pyridin-2-yl)methyl)piperidin-4-yl)-benzoyl)piperidin-4-yl)meth-yl)piperazin-1-yl)-3-fluoro-phenyl)amino)piperidine-2,6-dione]	25.3 nM	26.8 nM	
CNc1ccn(-c2ccnc3c2cc([C@@H](C)N2CC=C(c4c(F)cc(C(=O)N5CCn6nc(CN7CCC(c8ccc(NC9CCC(=O)NC9=O)cc8F)CC7)cc6C5)cc4F)CC2)n3C)c(=O)c1 (stereo partly drawn) [Example 2g103, 3-((4-(1-((5-(3,5-difluoro-4-(1-((R)-1-(1-methyl-4-(4-(methylamino)-2-oxopyridin-1(2H)-yl)-1H-pyrrolo[2,3-b]pyridin-2-yl)ethyl)-1,2,3,6-tetrahydropyridin-4-yl)benzo-yl)-4,5,6,7-tetrahydropyrazolo [1,5-a]pyrazin-2-yl)methyl)-piperidin-4-yl)-3-fluorophen-yl)amino)piperidine-2,6-dione]	8.8 nM	13.1 nM	
CNc1ccn(-c2ccnc3c2cc([C@H](C)N2CC=C(c4c(F)cc(C(=O)N5CCC(CN6CCN(c7ccc(NC8CCC(=O)NC8=O)cc7F)CC6)CC5)cc4F)CC2)n3C)c(=O)c1 (stereo partly drawn) [Example 2g104, 3-((4-(4-((1-(3,5-difluoro-4-(1-((S)-1-(1-methyl-4-(4-(methylamino)-2-oxopyridin-1(2H)-yl)-1H-pyrrolo[2,3-b]pyridin-2-yl)ethyl)-1,2,3,6-tetrahydropyridin-4-yl)benzo-yl)piperidin-4-yl)methyl)-piperazin-1-yl)-3-fluorophen-yl)amino)piperidine-2,6-dione]	3.8 nM	9 nM	
C[C@@H]1CN(c2ccc(NC3CCC(=O)NC3=O)cc2F)CCN1CC1CCN(C(=O)c2ccc(C3CCN([C@@H](C)c4cc5c(-n6ccc7c(c6=O)CCN7)ccnc5n4C)CC3)cc2)CC1 (stereo partly drawn) [Example 2f14, 3-((3-fluoro-4-((R)-3-methyl-4-((1-(4-(1-((S)-1-(1-methyl-4-(4-oxo-1,2,3,4-tetrahydro-5H-pyrrolo[3,2-c]pyridin-5-yl)-1H-pyrrolo[2,3-b]pyridin-2-yl)ethyl)piperidin-4-yl)-benzoyl)piperidin-4-yl)-meth-yl)piperazin-1-yl)phenyl)-amino)piperidine-2,6-dione]	7.8 nM	18.6 nM	

Continued, values first:

DC50 (STAT6)	EC50 [1]	Emax (STAT6; HeLa, maximal STAT6 degradation)	SMILES
3.1 nM	5.5 nM		Cc1cc(C(=O)N2CCC(CN3CCN(c4ccc(NC5CCC(=O)NC5=O)cc4F)CC3)CC2)cc(F)c1C1=CCN([C@@H](C)c2cc3c(-n4ccc5c(c4=O)CCN5)ccnc3n2C)CC1 (stereo partly drawn) [Example 2g18, 3-((3-fluoro-4-(4-((1-(3-fluoro-5-methyl-4-(1-((S)-1-(1-methyl-4-(4-oxo-1,2,3,4-tetrahydro-5H-pyrrolo[3,2-c]pyridin-5-yl)-1H-pyrrolo[2,3-b]pyridin-2-yl)ethyl)-1,2,3,6-tetrahydropyridin-4-yl)benzo-yl)piperidin-4-yl)methyl)-piperazin-1-yl)phenyl)amino)-piperidine-2,6-dione]
0.2 nM	0.1 nM		CNc1ccn(-c2ccnc3c2cc([C@H](C)N2CC=C(c4c(C)cc(C(=O)N5CCn6nc(CN7CCC(c8ccc(NC9CCC(=O)NC9=O)cc8F)CC7)cc6C5)cc4F)CC2)n3C)c(=O)c1 (stereo partly drawn) [Example 2g15, 3-((3-fluoro-4-(1-((5-(3-fluoro-5-methyl-4-(1-((S)-1-(1-methyl-4-(4-(methyl-amino)-2-oxopyridin-1(2H)-yl)-1H-pyrrolo[2,3-b]pyridin-2-yl)ethyl)-1,2,3,6-tetrahydro-pyridin-4-yl)benzoyl)-4,5,6,7-tetrahydropyrazolo[1,5-a]pyr-azin-2-yl)methyl)piperidin-4-yl)phenyl)amino)piperidine-2,6-dione]
0.5 nM	1.9 nM		CNc1cc(=O)n(-c2ccnc3c2cc([C@H](C)N2CC=C(c4c(C)cc(C(=O)N5CCn6nc(CN7CCC(c8ccc(NC9CCC(=O)NC9=O)cc8F)CC7)cc6C5)cc4F)CC2)n3C)cc1F (stereo partly drawn) [Example 2g4, 3-((3-fluoro-4-(1-((5-(3-fluoro-4-(1-((S)-1-(4-(5-fluoro-4-(methylamino)-2-oxopyridin-1(2H)-yl)-1-meth-yl-1H-pyrrolo[2,3-b]pyridin-2-yl)ethyl)-1,2,3,6-tetrahydro-pyridin-4-yl)-5-methylbenzo-yl)-4,5,6,7-tetrahydropyrazolo [1,5-a]pyrazin-2-yl)methyl)-piperidin-4-yl)phenyl)amino)-piperidine-2,6-dione]
	15.7 nM	70 to 80%	C[C@@H](c1cc2c(-n3ccc4c(c3=O)CCN4)ccnc2n1C)N1CCC(c2ccc(C(=O)N3CCC(CN4CCN(c5ccc(NC6CCC(=O)NC6=O)cc5F)CC4)CC3)cc2)CC1 (stereo partly drawn) [Example 2c29, 3-((3-fluoro-4-(4-((1-(4-(1-((S)-1-(1-methyl-4-(4-oxo-1,2,3,4-tetrahydro-5H-pyr-rolo[3,2-c]pyridin-5-yl)-1H-pyrrolo[2,3-b]pyridin-2-yl)-ethyl)piperidin-4-yl)benzoyl)-piperidin-4-yl)methyl)piper-azin-1-yl)phenyl)amino)piper-idine-2,6-dione]
